Experimental data as given in patent US12137885B2, “Bodily fluid collection device” (SENJU PHARMACEUTICAL CO., LTD., priority 2020, dated 2024).
Where a name gives a salt, the structure may show the parent alone.

Experiment: Timolol concentration of the aqueous humor after ophthalmic administration, collected with the bodily fluid-collecting device (LC/MS/MS)
Format: in vivo
Details: rabbit; single 40 μl ophthalmic dose of 0.5% timolol maleate sustained ophthalmic solution; aqueous humor 4 hours after administration; Method 1 (0.25, 0.5, 1, 2, 4 h) vs Method 2 (4 h only); FIG. 6
Method: Using a micropipette, a 0.5% timolol maleate sustained ophthalmic solution (produced by Santen Pharmaceutical Co., Ltd., Timoptol (registered trademark) XE ophthalmic solution 0.5%) was administered as a single dose of 40 μl near the upper portion of the bulbar conjunctiva of rabbit eyeballs retained using a retention can. The administration was performed on both eyes. A rabbit was retained using a retention can. 30 μl of a 10-fold diluted solution (dilution medium: physiological saline) of a 0.4% oxybuprocaine hydrochloride ophthalmic solution (produced by Santen Pharmaceutical Co., Ltd., Benoxil (registered trademark) ophthalmic solution 0.4%) was ophthalmically administered to the retained rabbit, and local anesthesia was applied. After gently stimulating the cornea with the tip of tweezers and confirming the disappearance of the corneal reflex, a lid retractor was attached. In the Example, a device with a 20-μl capillary attached to a 34 G injection needle was used as the bodily fluid-collecting device. After retaining the eyeball by sandwiching the upper bulbar conjunctiva with tweezers, the needle tip of the bodily fluid-collecting device was inserted into the anterior chamber via the cornea by two-step puncture while checking the curved surface of the cornea. […] After deproteinizing each sample, the timolol concentration of the aqueous humor was measured using the LC/MS/MS method.

CC(C)(C)NC[C@H](O)COc1nsnc1N1CCOCC1 [timolol, timolol maleate]
timolol concentration of the aqueous humor at the final collection (Method 1, repeated collection from the same eye) compared with one-point collection (Method 2): equivalent
